The values below come from US10023864B2, “Methods of treating a metabolic syndrome by modulating heat shock protein (HSP) 90-beta” (Berg LLC, priority 2014, dated 2018).

For series [1], the system named is DIO mice. As to the kind of experiment: Insulin level in DIO mice. It is filed as in vivo, mouse. As for the experimental part:
The mice were divided into four groups: (1) lean (non-diabetic control); (2) diabetic receiving control ASO (NC-ASO); (3) diabetic receiving ASO5; and (4) diabetic receiving ASO6. In various experiments mice were dosed intra-peritoneally with twice per week injection of ASO at […] body weight for 4 or 8 weeks. Skeletal muscles were subjected to quantitative PCR.
Further, the effect of the reduction of Hsp90ab1 protein level on plasma insulin levels was examined.

Series [2] concerns Hsp90AB1 protein in C2C12 mouse myoblasts. In words: Hsp90AB1 protein expression in C2C12 mouse myoblasts by Western blotting. It is filed as cell-based. The note with it: Western blot, normalized to actin, vs NC1. As to the method:
(§1) The ASO oligonucleotides ASO5, ASO13 and ASO18 were tested for their ability to reduce expression of human Hsp90AB1 protein in human skeletal muscle myotubes (HSMM) and C2C12 mouse myoblasts by Western blotting. ASO5 was derived from the mouse HSP90ab1 gene, while ASO13 and ASO18 were directed to the human HSP90ab1 gene. The oligonucleotide NC1 was used as a negative control. HSP90AB1protein levels were normalized to the levels of actin.

The next series deals with human Hsp90AB1 protein. As to the kind of experiment: Knockdown of Hsp90AB1 protein in HSMM by Western blotting. Format: cell-based. The note with it: Western blot, normalized to actin, vs NC1. As for the experimental part: ASO1-ASO6 were tested for their ability to knock down human Hsp90AB1 levels in HSMM myotubes. The effectiveness of oligonucleotides ASO1 (A1), ASO2 (A2) ASO3 (A3) ASO4 (A4) ASO5 (A5) and ASO6 (A6) in knocking down the expression of HSP90AB1 protein is shown by Western blotting in FIGS. 19A and 19B. The oligonucleotide NC1 was used as a negative control. HSP90Ab1 protein levels were normalized to the levels of actin.
as §1

In series [3] the test system is DIO mice. In words: Heat production in DIO mice. The settings on record: eight weeks treatment. It is filed as in vivo, mouse. As for the experimental part: The CLAMS (Columbus Instruments, Columbus, Ohio, USA) metabolic monitoring cages are used to simultaneously monitor horizontal and vertical activity, feeding and drinking, oxygen consumption, and CO2 production. ASO injected and control mice are individually placed in CLAMS cages and monitored over a 4-day period after acclimation to the cages for 1-2 days. The various parameters are recorded in both fasted and fed conditions. Food and water consumption are measured directly as accumulated data. Hourly files display all measurements for each parameter: volume of oxygen consumed, ml/kg per h (VO2), volume of carbon dioxide produced, ml/kg per h (VCO2), respiratory exchange ratio, heat (kcal/h), accumulated food (g), accumulated drink (g), XY total activity (all horizontal beam breaks in counts), XY ambulatory activity (minimum three different, consecutive horizontal beam breaks in counts), and Z activity (all vertical beam breaks in counts). The data are recorded during the 30-s sampling period. The CLAMS data are analyzed by normalizing with lean body mass.

For a further series, the system named is HSP90α and HSP90β. The note with it: HSP90α vs HSP90β; cited from earlier work.
The test system of series [4] is HSMM myotubes. In words: Seahorse bioenergetic profiling of myotubes (OCR). It is filed as cell-based, human.
The subject of series [5] is HSMM myotubes. In words: Insulin signaling experiments in HSMM myotubes (western blot of phosphorylated Akt, ERK, GSK3β). It is filed as cell-based, human. As for the experimental part: Human HSMM myotubes cells that were plated in 12 well plates the previous week were used. The media was aspirated and fresh media with appropriate dilutions of the NC and H3 siRNA for Hsp90 knockdown were added such that the final concentration in the wells of the plate was 100 nM. Minis TKO transfection reagent was used for transfecting the cells. The plate was then incubated at 37° C. overnight.
The media was aspirated and the cells were washed off twice—first with warm PBS and second with 0.1% BSA containing growth media. The cells were then serum starved for 2-3 hours in 0.1% differentiation media containing the appropriate inhibitors at 37° C. followed by insulin stimulation for 5 minutes (0, 10, and 100 nM insulin).
The wells were then washed once with PBS and harvested into 100 μl of RIPA buffer containing protease and phosphatase inhibitors. The plate was placed on ice and, using a cell scraper, the cells were scraped from the plate. The lysates were collected in 1.5 ml Eppendorf tubes and homogenized by using a syringe and needle. The lysates were then centrifuged at 4° C. for 10 mins at 14,000 RPM. The lysates can be stored at −20° C. for future use.
Protein content was estimated by BCA assay and samples were prepared for gel electrophoresis and western blotting as described in subsequent sections. The total volume required to load 10 μg of total protein was calculated.
The samples were loaded onto a bis-tris or a tris-glycine-SDS gel. Proteins were transferred to a PVDF or a nitrocellulose membrane using routine wet or dry transfer methods. The membranes were then blocked for at least an hour using the blocking buffer. The membranes were then cut prior to exposure to the appropriate primary antibodies diluted in blocking buffer for incubation. Primary antibodies to pAKT (p-Akt, S473), pERK(p-Erk, Phospho-p44/42 MAPK (Erk1/2) (Thr202/Tyr204), and pGSK3β (Phospho-GSK-3β (Ser9) were obtained from Cell Signaling Inc.® Other antibodies were also obtained from commercial sources. The membrane was placed in the shaker and incubated in the refrigerator (4° C.) overnight.
Visualization of proteins and quantification of western blots was performed as follows. The membranes were washed thrice using 1×PBS-T (10 minutes each). […]
Each strip of membrane was taken out arranged in a clean flat surface. […] The bands were quantified using the BIORAD® software.
HSMM myotubes were sequentially (1) transfected with 3 different siRNAs targeting HSP90AB1 for 48 hours, (2) serum starved for 3 hours, and (3) subjected to stimulation of different concentrations of insulin (0, 10, 100 nM). Signaling events downstream of insulin stimulation were assessed by western blotting for levels of total and phosphorylated Akt, Erk, and GSK3β. […]

“Also recorded” adds a separate entry of the source. d = 2'-deoxy (DNA); m = 2'-O-methyl

As to “mC*mC*mA*mC*mU*mU*C*C*T*T*G*A*C*C*C*T*C*C*mU*mC*mU*mC*mC*mU (antisense CCACUUCCTTGACCCTCCUCUCCU; sugars from the 5' end m6 d12 m6, all phosphorothioate, methylation of C not given here) [ASO5, modified antisense oligonucleotide derived from the mouse HSP90AB1 gene]”, the fed insulin levels result in the series on DIO mice [1] is reported as “significant reduction”. Besides, the Hsp90AB1 protein expression result in series [2] is reported as “did not significantly reduce”.
For “mC*mU*mU*mC*mC*mU*T*G*A*C*C*C*T*C*C*T*C*T*mC*mC*mU*mC*mC*mA (antisense CUUCCUTGACCCTCCTCTCCUCCA; sugars from the 5' end m6 d12 m6, all phosphorothioate, methylation of C not given here) [ASO4, modified antisense oligonucleotide derived from the mouse HSP90AB1 gene]”, the “level of HSP90ab1 protein” value in the series on human Hsp90AB1 protein is listed as “effective”.
With “mU*mC*mU*mC*mC*mU*T*C*T*C*C*C*G*T*T*C*C*T*mU*mC*mU*mC*mC*mA (antisense UCUCCUTCTCCCGTTCCTUCUCCA; sugars from the 5' end m6 d12 m6, all phosphorothioate, methylation of C not given here) [ASO1, modified antisense oligonucleotide derived from the mouse HSP90AB1 gene]”, the heat production result with DIO mice [3] is “improves”. The “level of HSP90ab1 protein” value with human Hsp90AB1 protein is recorded as “effective”.
Turning to `O=C(O)/C=C/c1nn(Cc2ccc(Cl)cc2Cl)c2cc(C(F)(F)F)ccc12` [gamendazole], the HSP90 isoform preference entry with HSP90α and HSP90β is recorded as “specific for HSP90β”.
With `CCc1cc(-c2n[nH]c(C)c2-c2ccc3c(c2)OCCO3)c(O)cc1O` [CCT018159], in the series with HSMM myotubes [4] (CCT018159 at 1 μM, 3 μM, and 10 μM (FIG. 10 legend)), the “CCCP induced uncoupling response on mitochondrial metabolism” value is reported as “did not have a significant effect”. Moreover, the “uncoupled OCR” value in the series on HSMM myotubes [4] (myotubes, CCT018159 1 μM) was “increased”. In addition, in the series with HSMM myotubes [4] (myotubes, CCT018159, 10 uM induced greater suppression), the “uncoupled (CCCP induced) OCR” value was “decreased in a concentration dependent manner”. Also, the “basal OCR” value in the series with HSMM myotubes [4] (myotubes, CCT018159 at different concentrations) is listed as “no observed change”. In addition, in the series on HSMM myotubes [5], the “effect on insulin signaling and bioenergetics compared with HSP90β knockdown alone” value is on record as “less profound effect”. In addition, in the series on HSMM myotubes [5] (CCT018159 and insulin), the “level of pERK” value is recorded as “No significant changes; also recorded: no change” and the “level of pGSK3β” value is “No significant changes; also recorded: no change”. Besides, the “insulin stimulated phosphorylation of Akt (phospho-AKT)” value in the series on HSMM myotubes [5] (CCT018159 then insulin, effect at the higher concentration, 10 uM) is reported as “increase; also recorded: significantly enhanced”.
`C[C@@H]1C[C@H]2O[C@@H]2/C=C\C=C\C(=O)Cc2c(Cl)c(O)cc(O)c2C(=O)O1` [radicicol]: in the series on HSP90α and HSP90β, the HSP90 isoform preference entry is reported as “HSP90β is more sensitive”.
Take NVP-HS990: the HSP90 isoform preference result in the series with HSP90α and HSP90β was “inhibit both the HSP90α and HSP90β isoforms”.
For “mC*mU*mC*mU*mU*mC*C*T*C*T*G*C*C*T*C*A*T*C*mA*mU*mC*mA*mC*mU (antisense CUCUUCCTCTGCCTCATCAUCACU; sugars from the 5' end m6 d12 m6, all phosphorothioate, methylation of C not given here) [ASO13, modified ASO designed on homology among mouse, monkey and human HSP90ab1 genes]”, the “level of HSP90ab1 protein” value with human Hsp90AB1 protein is given as “significantly decreased; also recorded: significantly reduced”. The Hsp90AB1 protein expression entry in series [2] was “significantly decreased; also recorded: significantly reduced”.
In the case of “mA*mU*mG*mC*mC*mC*T*G*A*A*T*T*C*C*A*A*C*T*mG*mA*mC*mC*mU*mU (antisense AUGCCCTGAATTCCAACTGACCUU; sugars from the 5' end m6 d12 m6, all phosphorothioate, methylation of C not given here) [ASO18, modified ASO designed on homology among mouse, monkey and human HSP90ab1 genes]”, the “level of HSP90ab1 protein” value with human Hsp90AB1 protein is “significantly decreased; also recorded: significantly reduced”. Besides, the Hsp90AB1 protein expression entry in series [2] is recorded as “significantly decreased; also recorded: significantly reduced”.
For the compound “mA*mC*mU*mU*mC*mC*T*T*G*A*C*C*C*T*C*C*T*C*mU*mC*mC*mU*mC*mC (antisense ACUUCCTTGACCCTCCTCUCCUCC; sugars from the 5' end m6 d12 m6, all phosphorothioate, methylation of C not given here) [ASO3, modified antisense oligonucleotide derived from the mouse HSP90AB1 gene]”, the “level of HSP90ab1 protein” value in the series on human Hsp90AB1 protein is “effective”.
On to “mA*mU*mC*mU*mC*mC*T*T*C*T*C*C*C*G*T*T*C*C*mU*mU*mC*mU*mC*mC (antisense AUCUCCTTCTCCCGTTCCUUCUCC; sugars from the 5' end m6 d12 m6, all phosphorothioate, methylation of C not given here) [ASO2, modified antisense oligonucleotide derived from the mouse HSP90AB1 gene]”, for which, in the series with DIO mice [3], the heat production result is listed as “improves”. Also, the “level of HSP90ab1 protein” value in the series on human Hsp90AB1 protein is reported as “effective”.
